Where two headings read alike, the source gives them in different places.
How the values were obtained:
[1] = molecular target: T1, TYK2 JH2 (Homo sapiens, UniProt P29597); assay: TYK2 JH2 binding assay (KINOMEscan KdELECT competitive binding); conditions: TYK2 JH2 domain, DiscoverX KINOMEscan KdELECT (Assay A); read-out: Biochemical TYK2_DiscoverX_JH2_BND_Kd
T1 construct: purchased DiscoverX (KINOMEscan KdELECT service); host or cells: E. coli BL21-derived (T7 phage display) or HEK-293
Method: Assay A: TYK2 JH2 Binding Assay
Competitive binding studies using TKY2 JH2-domain fragments were conducted by DiscoverX using the KINOMEscan (KdELECT) platform. Kinase-tagged T7 phage strains were prepared in an E. coli host derived from the BL21 strain. E. coli were grown to log-phase and infected with […] and incubated with shaking at 32° C. until lysis. The lysates were centrifuged and filtered to remove cell debris. The remaining kinases were produced in HEK-293 cells and subsequently tagged with DNA for qPCR detection. Streptavidin-coated magnetic beads were treated with biotinylated small molecule ligands for 30 minutes at room temperature to generate affinity resins for kinase assays. The liganded beads were blocked with excess biotin and washed with blocking buffer (SeaBlock (Pierce), 1% BSA, 0.05% Tween 20, 1 mM DTT) to remove unbound ligand and to reduce non-specific binding. Binding reactions were assembled by combining kinases, liganded affinity beads, and test compounds in 1× binding buffer (20% SeaBlock, 0.17×PBS, 0.05% Tween 20, 6 mM DTT). Test compounds were prepared as 111× stocks in 100% DMSO. Kds were determined using an 11-point 3-fold compound dilution series with three DMSO control points. All compounds for Kd measurements are distributed by acoustic transfer (non-contact dispensing) in 100% DMSO. The compounds were then diluted directly into the assays such that the final concentration of DMSO was 0.9%. All reactions performed in polypropylene 384-well plate. Each was a final volume of 0.02 ml. The assay plates were incubated at room temperature with shaking for 1 hour and the affinity beads were washed with wash buffer (1×PBS, 0.05% Tween 20). The beads were then re-suspended in elution buffer (1×PBS, 0.05% Tween 20, 0.5 μM non-biotinylated affinity ligand) and incubated at room temperature with shaking for 30 minutes. The kinase concentration in the eluates was measured by qPCR.

[2] = system: JAK1/TYK2 pSTAT5 (Tyr694/699) in THP-1 cell line; assay: IFNa-stimulated JAK1/TYK2 pSTAT5 (Tyr694/699) inhibition cellular assay, AlphaLISA; assay type: cell-based; conditions: THP-1 cells, IFNa-stimulated, AlphaLISA (Assay B), read-out: Cellular_THP1_IFNa-pSTATS_TYK2
Method: Assay B: JAK1/TYK2 pSTAT5 (Tyr694/699) inhibition IC50 Cellular Assays
To evaluate the inhibition effect of compounds disclosed herein against TYK2, an IFNa-stimulated JAE1/TYK2 pSTAT5 (Tyr694/699) quantification assay was conducted in the THP-1 cell line using an AlphaLISA detection method (PerkinElmer ALSU-PST5). Compounds in DMSO were serially diluted in a 96-well plate (10 mM starting concentration, 6-fold dilutions, 8 concentrations total) prior to dispensing of 8 nL into a 384-well plate using an I.DOT non-contact liquid handler (Dispendix). Cells were collected via centrifugation at 300 ref for 5 min and resuspended in Hanks' Balanced Salt Solution (Gibco 14175-079), and 6 μl containing 2e4 cells was dispensed into each well of the 384-well plate containing test compounds or DMSO alone (final concentrations: 10000, 1666.67, 277.78, 46.30, 7.72, 1.29, 0.21 and 0.04 nM). Cells were then incubated for 1 h at 37° C. with 5% CO2 prior to the addition of 2 μL IFNa (100 ng/mL; PBL Assay Science 11175-1). Following an additional 30 min incubation at 37° C. with 5% CO2, 2 μL of 5× lysis buffer was added to each well using the I.DOT […]. Plates were sealed and incubated at RT for 10 min on a plate shaker set to 400 RPM. Cell lysates were then frozen at −80° C. before subsequent detection of pSTAT5 by AlphaLISA. At the time of the detection assay, cell lysates were thawed for 5 min at room temperature and then on a plate shaker set to 400 RPM for an additional 10 min. Following the manufacturer recommended protocol (Perkin Elmer), 5 μL of acceptor bead master mix was added to each well; plates were then resealed and incubated for 2 min at RT on a plate shaker (400 rpm) prior to an additional 2-h incubation without agitation (protected from light). Donor bead master mix, 5 uL per well, was then added to each well before 2 min of shaking (RT, 400 rpm) and 2-h incubation (RT, no shaking, protected from light). Levels of pSTAT5 protein were then measured as fluorescent signal at 615 nm with an EnVision multimode plate reader (Perkin Elmer). IC50 values were calculated in Dotmatics using the four-parameter logistic curve regression model with bottom fixed to 0 and Hill Slope fixed to −1.

T1 sequence (P29597 589-875 limits assumed): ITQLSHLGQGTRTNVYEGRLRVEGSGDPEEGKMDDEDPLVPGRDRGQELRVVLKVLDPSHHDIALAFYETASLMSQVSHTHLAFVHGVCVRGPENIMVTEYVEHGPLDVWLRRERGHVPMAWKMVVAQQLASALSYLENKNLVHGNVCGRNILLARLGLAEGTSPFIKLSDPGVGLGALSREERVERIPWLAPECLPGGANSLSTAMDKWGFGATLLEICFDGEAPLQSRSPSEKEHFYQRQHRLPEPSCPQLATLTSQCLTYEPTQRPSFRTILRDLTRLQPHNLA

SMILES | Kd [1] | IC50 ([2]; Homo sapiens) | IC50 [2]
CNc1ncc(-c2nc3cc(N4C[C@@H](C)O[C@H](C)C4)ccc3o2)c2cc(NC(=O)C3CC3)ncc12 (racemic) [Example 316, N-(5-(5-(2,6-dimethylmorpholino)benzo[d]oxazol-2-y1)-8-(methylamino)-2,7-naphthyridin-3-yl)cyclopropanecarboxamide (trans racemate)] | ≤ 100 nM | ≤ 500 nM | –
CNc1ncc(-c2nc3cc(OC)ccc3o2)c2cc(NC(=O)[C@@H]3C[C@H]3C#N)ncc12 (racemic) [Example 385, 2-cyano-N-(5-(5-methoxybenzo[d]oxazol-2-y1)-8-(methylamino)-2,7-naphthyridin-3-yl)cyclopropane-1-carboxamide] | ≤ 100 nM | ≤ 500 nM | –
CCOC(=O)[C@@H]1C[C@@H]1C(=O)Nc1cc2c(-c3nc4cc(OC)ccc4o3)cnc(NC)c2cn1 (racemic) [Example 391, ethyl 2-((5-(5-methoxybenzo[d]oxazol-2-yl)-8-(methylamino)-2,7-naphthyridin-3-yl)carbamoyl)cyclopropane-1-carboxylate] | ≤ 100 nM | ≤ 500 nM | –
CNc1ncc(-c2nc3cc(OC)ccc3o2)c2cc(NC(=O)[C@@H]3C[C@@H]3C(F)F)ncc12 (racemic) [Example 393, 2-(difluoromethyl)-N-(5-(5-methoxybenzo[d]oxazol-2-yl)-8-(methylamino)-2,7-naphthyridin-3-yl)cyclopropane-1-carboxamide] | ≤ 100 nM | ≤ 500 nM | –
CNc1ncc(-c2nc3cc(OC)ccc3o2)c2cc(NC(=O)[C@@H]3C[C@@H]3C(F)(F)F)ncc12 (racemic) [Example 396, N-(5-(5-methoxybenzo[d]oxazol-2-yl)-8-(methylamino)-2,7-naphthyridin-3-yl)-2-(trifluoromethyl)cyclopropane-1-carboxamide] | ≤ 100 nM | ≤ 500 nM | –
CNc1ncc(-c2nc3cc(N4CCO[C@@H](C)C4)ccc3o2)c2cc(NC(=O)[C@@H]3C[C@@H]3CF)ncc12 (racemic) [Example 410, 2-(fluoromethyl)-N-(8-(methylamino)-5-(5-((S)-2-methylmorpholino)benzo[d]oxazol-2-yl)-2,7-naphthyridin-3-yl)cyclopropane-1-carboxamide] | ≤ 100 nM | ≤ 500 nM | –
CNc1ncc(-c2nc3cc(N4CCO[C@@H](C)C4)ccc3o2)c2cc(NC(=O)[C@H]3C[C@H]3C(C)(C)O)ncc12 (racemic) [Example 416, 2-(2-hydroxypropan-2-yl)-N-(8-(methylamino)-5-(5-((S)-2-methylmorpholino)benzo[d]oxazol-2-yl)-2,7-naphthyridin-3-yl)cyclopropane-1-carboxamide] | ≤ 100 nM | ≤ 500 nM | –
[2H]C([2H])([2H])Nc1ncc(-c2nc3ccccc3o2)c2cc(NC(=O)C3CC3F)ncc12 (racemic) [Example 433, N-(5-(benzo[d]oxazol-2-yl)-8-((methyl-d3)amino)-2,7-naphthyridin-3-yl)-2-fluorocyclopropane-1-carboxamide] | ≤ 100 nM | ≤ 500 nM | –
[2H]C([2H])([2H])Nc1ncc(-c2nc3ccccc3o2)c2cc(NC(=O)C3CC3F)ncc12 (racemic) [Example 434, N-(5-(benzo[d]oxazol-2-yl)-8-((methyl-d3)amino)-2,7-naphthyridin-3-yl)-2-fluorocyclopropane-1-carboxamide] | ≤ 100 nM | – | ≤ 500 nM
CNc1ncc(-c2nc3ccc(N4CC(C)OC(C)C4)cn3n2)c2cc(NC(=O)C3CC3)ncc12 (racemic) [Example 480, N-(5-(6-(2,6-dimethylmorpholino)-[1,2,4]triazolo[1,5-a]pyridin-2-yl)-8-(methylamino)-2,7-naphthyridin-3-yl)cyclopropanecarboxamide (trans racemate)] | ≤ 100 nM | ≤ 500 nM | –

Further lines, results first:

Kd [1] | IC50 ([2]; Homo sapiens) | IC50 [2] | SMILES
≤ 100 nM | ≤ 500 nM | – | CNc1ncc(-c2nc3cc(C4CCN([C@@]5(C)COC[C@H]5O)CC4)ccc3o2)c2cc(NC(=O)C3CC3)ncc12 (racemic) [Example 260, N-(5-(5-(1-(4-hydroxy-3-methyltetrahydrofuran-3-yl)piperidin-4-yl)benzo[d]oxazol-2-yl)-8-(methylamino)-2,7-naphthyridin-3-yl)cyclopropanecarboxamide]
≤ 100 nM | ≤ 500 nM | – | CNc1ncc(-c2nc3cc(OC)ccc3o2)c2cc(NC(=O)[C@@H]3C[C@H]3C)ncc12 (racemic) [Example 382, N-(5-(5-methoxybenzo[d]oxazol-2-yl)-8-(methylamino)-2,7-naphthyridin-3-y1)-2-methylcyclopropane-1~carboxamide]
≤ 100 nM | ≤ 500 nM | – | CNc1ncc(-c2nc3cc(OC)ccc3o2)c2cc(NC(=O)[C@@H]3C[C@@H]3C)ncc12 (racemic) [Example 383, N-(5-(5-methoxybenzo[d]oxazol-2-yl)-8-(methylamino)-2,7-naphthyridin-3-y1)-2-methylcyclopropane-1-carboxamide]
≤ 100 nM | ≤ 500 nM | – | CNc1ncc(-c2nc3cc(OC)ccc3o2)c2cc(NC(=O)[C@@H]3C[C@@H]3CF)ncc12 (racemic) [Example 399, 2-(fluoromethyl)-N-(5-(5-methoxybenzo[d]oxazol-2-yl)-8-(methylamino)-2,7-naphthyridin-3-yl)cyclopropane-1-carboxamide]
≤ 100 nM | ≤ 500 nM | – | CNc1ncc(-c2nc3cc(OC)ccc3o2)c2cc(NC(=O)[C@H]3C[C@H]3C(C)(C)O)ncc12 (racemic) [Example 405, 2-(2-hydroxypropan-2-yl)-N-(5-(5-methoxybenzo[d]oxazol-2-yl)-8-(methylamino)-2,7-naphthyridin-3-yl)cyclopropane-1-carboxamide]
≤ 100 nM | ≤ 500 nM | – | CNc1ncc(-c2nc3cc(OC)ccc3o2)c2cc(NC(=O)[C@H]3C[C@@H]3C(C)(C)O)ncc12 (racemic) [Example 406, 2-(2-hydroxypropan-2-yl)-N-(5-(5-methoxybenzo[d]oxazol-2-yl)-8-(methylamino)-2,7-naphthyridin-3-yl)cyclopropane-1-carboxamide]
≤ 100 nM | ≤ 500 nM | – | CNc1ncc(-c2nc3cc(N4CCO[C@@H](C)C4)ccc3o2)c2cc(NC(=O)[C@@H]3C[C@@H]3C(F)F)ncc12 (racemic) [Example 413, 2-(difluoromethyl)-N-(8-(methylamino)-5-(5-((S)-2-methylmorpholino)benzo[d]oxazol-2-yl)-2,7-naphthyridin-3-yl)cyclopropane-1-carboxamide]
≤ 100 nM | ≤ 500 nM | – | [2H]C([2H])([2H])Nc1ncc(-c2nc3cc(OC)ccc3o2)c2cc(NC(=O)[C@H]3C[C@H]3C)ncc12 (racemic) [Example 436, N-(5-(5-methoxybenzo[d]oxazol-2-yl)-8-((methyl-d3)amino)-2,7-naphthyridin-3-yl)-2-methylcyclopropane-1-carboxamide]
